{"source": "patent US9402398B2", "about": "“Herbicidal compounds” (SYNGENTA PARTICIPATIONS AG, priority 2012, dated 2016)", "assay_type_in_all_cases": "in vivo", "key": {"[1]": {"test_system": "Alopecurus myosuroides (ALOMY)", "experiment": "Herbicidal glasshouse test, post-emergence", "settings": "post-emergence (sprayed after 8 days cultivation), 1000 g/h, evaluated after 13 days", "method": "(§1) Seeds of a variety of test species are sown in standard soil in pots (Alopecurus myosuroides (ALOMY), Setaria faberi (SETFA), Echinochloa crus-galli (ECHCG), Solanum nigrum (SOLNI), Amaranthus retoflexus (AMARE), Ipomoea hederacea (IPOHE)). After cultivation for one day (pre-emergence) or after 8 days cultivation (post-emergence) under controlled conditions in a glasshouse (at 24/16° C., day/night; 14 hours light; 65% humidity), the plants are sprayed with an aqueous spray solution derived from the formulation of the technical active ingredient in acetone/water (50:50) solution containing 0.5% Tween 20 (polyoxyethelyene sorbitan monolaurate, CAS RN 9005-64-5). Compounds are applied at 1000 g/h. The test plants are then grown in a glasshouse under controlled conditions in a glasshouse (at 24/16° C., day/night; 14 hours light; 65% humidity) and watered twice daily. After 13 days for pre and post-emergence, the test is evaluated for the percentage damage caused to the plant. The biological activities are shown in the following table on a five point scale (5=80-100%; 4=60-79%; 3=40-59%; 2=20-39%; 1=0-19%)."}, "[2]": {"test_system": "Amaranthus retoflexus (AMARE)", "experiment": "Herbicidal glasshouse test, post-emergence", "settings": "post-emergence (sprayed after 8 days cultivation), 1000 g/h, evaluated after 13 days", "method": "as §1"}, "[3]": {"test_system": "Echinochloa crus-galli (ECHCG)", "experiment": "Herbicidal glasshouse test, post-emergence", "settings": "post-emergence (sprayed after 8 days cultivation), 1000 g/h, evaluated after 13 days", "method": "as §1"}, "[4]": {"test_system": "Ipomoea hederacea (IPOHE)", "experiment": "Herbicidal glasshouse test, post-emergence", "settings": "post-emergence (sprayed after 8 days cultivation), 1000 g/h, evaluated after 13 days", "method": "as §1"}, "Setaria faberi (SETFA) [5]": {"test_system": "Setaria faberi (SETFA)", "experiment": "Herbicidal glasshouse test, post-emergence", "settings": "post-emergence (sprayed after 8 days cultivation), 1000 g/h, evaluated after 13 days", "method": "as §1"}, "Solanum nigrum (SOLNI) [6]": {"test_system": "Solanum nigrum (SOLNI)", "experiment": "Herbicidal glasshouse test, post-emergence", "settings": "post-emergence (sprayed after 8 days cultivation), 1000 g/h, evaluated after 13 days", "method": "as §1"}, "[7]": {"test_system": "Alopecurus myosuroides (ALOMY)", "experiment": "Herbicidal glasshouse test, pre-emergence", "settings": "pre-emergence (sprayed after cultivation for one day), 1000 g/h, evaluated after 13 days", "method": "as §1"}, "[8]": {"test_system": "Amaranthus retoflexus (AMARE)", "experiment": "Herbicidal glasshouse test, pre-emergence", "settings": "pre-emergence (sprayed after cultivation for one day), 1000 g/h, evaluated after 13 days", "method": "as §1"}, "[9]": {"test_system": "Echinochloa crus-galli (ECHCG)", "experiment": "Herbicidal glasshouse test, pre-emergence", "settings": "pre-emergence (sprayed after cultivation for one day), 1000 g/h, evaluated after 13 days", "method": "as §1"}, "[10]": {"test_system": "Ipomoea hederacea (IPOHE)", "experiment": "Herbicidal glasshouse test, pre-emergence", "settings": "pre-emergence (sprayed after cultivation for one day), 1000 g/h, evaluated after 13 days", "method": "as §1"}, "Setaria faberi (SETFA) [11]": {"test_system": "Setaria faberi (SETFA)", "experiment": "Herbicidal glasshouse test, pre-emergence", "settings": "pre-emergence (sprayed after cultivation for one day), 1000 g/h, evaluated after 13 days", "method": "as §1"}, "Solanum nigrum (SOLNI) [12]": {"test_system": "Solanum nigrum (SOLNI)", "experiment": "Herbicidal glasshouse test, pre-emergence", "settings": "pre-emergence (sprayed after cultivation for one day), 1000 g/h, evaluated after 13 days", "method": "as §1"}}, "data": [{"smiles": "Cc1cc(C(=O)Nc2nnnn2C)c(=O)n(-c2ccccc2C)n1", "note": "[Compound 1.003]", "values": [{"measurement": "percentage damage caused to the plant, five point scale, POST Application ALOMY", "setting": "[1]", "result": "4 (4=60-79%)"}, {"measurement": "percentage damage caused to the plant, five point scale, POST Application AMARE", "setting": "[2]", "result": "5 (5=80-100%)"}, {"measurement": "percentage damage caused to the plant, five point scale, POST Application ECHCG", "setting": "[3]", "result": "5 (5=80-100%)"}, {"measurement": "percentage damage caused to the plant, five point scale, POST Application IPOHE", "setting": "[4]", "result": "5 (5=80-100%)"}, {"measurement": "percentage damage caused to the plant, five point scale, POST Application SETFA", "setting": "Setaria faberi (SETFA) [5]", "result": "3 (3=40-59%)"}, {"measurement": "percentage damage caused to the plant, five point scale, POST Application SOLNI", "setting": "Solanum nigrum (SOLNI) [6]", "result": "5 (5=80-100%)"}, {"measurement": "percentage damage caused to the plant, five point scale, PRE Application ALOMY", "setting": "[7]", "result": "2 (2=20-39%)"}, {"measurement": "percentage damage caused to the plant, five point scale, PRE Application AMARE", "setting": "[8]", "result": "5 (5=80-100%)"}, {"measurement": "percentage damage caused to the plant, five point scale, PRE Application ECHCG", "setting": "[9]", "result": "5 (5=80-100%)"}, {"measurement": "percentage damage caused to the plant, five point scale, PRE Application IPOHE", "setting": "[10]", "result": "4 (4=60-79%)"}, {"measurement": "percentage damage caused to the plant, five point scale, PRE Application SETFA", "setting": "Setaria faberi (SETFA) [11]", "result": "3 (3=40-59%)"}, {"measurement": "percentage damage caused to the plant, five point scale, PRE Application SOLNI", "setting": "Solanum nigrum (SOLNI) [12]", "result": "4 (4=60-79%)"}]}, {"smiles": "Cc1cc(C(=O)Nc2nnnn2C)c(=O)n(-c2ccccc2)n1", "note": "[Compound 1.001]", "values": [{"measurement": "percentage damage caused to the plant, five point scale, POST Application ALOMY", "setting": "[1]", "result": "5 (5=80-100%)"}, {"measurement": "percentage damage caused to the plant, five point scale, POST Application AMARE", "setting": "[2]", "result": "4 (4=60-79%)"}, {"measurement": "percentage damage caused to the plant, five point scale, POST Application ECHCG", "setting": "[3]", "result": "5 (5=80-100%)"}, {"measurement": "percentage damage caused to the plant, five point scale, POST Application IPOHE", "setting": "[4]", "result": "4 (4=60-79%)"}, {"measurement": "percentage damage caused to the plant, five point scale, POST Application SETFA", "setting": "Setaria faberi (SETFA) [5]", "result": "3 (3=40-59%)"}, {"measurement": "percentage damage caused to the plant, five point scale, POST Application SOLNI", "setting": "Solanum nigrum (SOLNI) [6]", "result": "5 (5=80-100%)"}, {"measurement": "percentage damage caused to the plant, five point scale, PRE Application ALOMY", "setting": "[7]", "result": "5 (5=80-100%)"}, {"measurement": "percentage damage caused to the plant, five point scale, PRE Application AMARE", "setting": "[8]", "result": "5 (5=80-100%)"}, {"measurement": "percentage damage caused to the plant, five point scale, PRE Application ECHCG", "setting": "[9]", "result": "4 (4=60-79%)"}, {"measurement": "percentage damage caused to the plant, five point scale, PRE Application IPOHE", "setting": "[10]", "result": "3 (3=40-59%)"}, {"measurement": "percentage damage caused to the plant, five point scale, PRE Application SETFA", "setting": "Setaria faberi (SETFA) [11]", "result": "3 (3=40-59%)"}, {"measurement": "percentage damage caused to the plant, five point scale, PRE Application SOLNI", "setting": "Solanum nigrum (SOLNI) [12]", "result": "5 (5=80-100%)"}]}, {"smiles": "COc1ccccc1-n1nc(C)cc(C(=O)Nc2nnnn2C)c1=O", "note": "[Compound 1.004]", "values": [{"measurement": "percentage damage caused to the plant, five point scale, POST Application ALOMY", "setting": "[1]", "result": "5 (5=80-100%)"}, {"measurement": "percentage damage caused to the plant, five point scale, POST Application AMARE", "setting": "[2]", "result": "5 (5=80-100%)"}, {"measurement": "percentage damage caused to the plant, five point scale, POST Application ECHCG", "setting": "[3]", "result": "5 (5=80-100%)"}, {"measurement": "percentage damage caused to the plant, five point scale, POST Application IPOHE", "setting": "[4]", "result": "5 (5=80-100%)"}, {"measurement": "percentage damage caused to the plant, five point scale, POST Application SETFA", "setting": "Setaria faberi (SETFA) [5]", "result": "5 (5=80-100%)"}, {"measurement": "percentage damage caused to the plant, five point scale, POST Application SOLNI", "setting": "Solanum nigrum (SOLNI) [6]", "result": "5 (5=80-100%)"}, {"measurement": "percentage damage caused to the plant, five point scale, PRE Application ALOMY", "setting": "[7]", "result": "5 (5=80-100%)"}, {"measurement": "percentage damage caused to the plant, five point scale, PRE Application AMARE", "setting": "[8]", "result": "5 (5=80-100%)"}, {"measurement": "percentage damage caused to the plant, five point scale, PRE Application ECHCG", "setting": "[9]", "result": "5 (5=80-100%)"}, {"measurement": "percentage damage caused to the plant, five point scale, PRE Application IPOHE", "setting": "[10]", "result": "4 (4=60-79%)"}, {"measurement": "percentage damage caused to the plant, five point scale, PRE Application SETFA", "setting": "Setaria faberi (SETFA) [11]", "result": "5 (5=80-100%)"}, {"measurement": "percentage damage caused to the plant, five point scale, PRE Application SOLNI", "setting": "Solanum nigrum (SOLNI) [12]", "result": "5 (5=80-100%)"}]}, {"smiles": "COCCn1nc(C)cc(C(=O)Nc2nnnn2C)c1=O", "note": "[Compound 1.017]", "values": [{"measurement": "percentage damage caused to the plant, five point scale, POST Application ALOMY", "setting": "[1]", "result": "5 (5=80-100%)"}, {"measurement": "percentage damage caused to the plant, five point scale, POST Application AMARE", "setting": "[2]", "result": "5 (5=80-100%)"}, {"measurement": "percentage damage caused to the plant, five point scale, POST Application ECHCG", "setting": "[3]", "result": "5 (5=80-100%)"}, {"measurement": "percentage damage caused to the plant, five point scale, POST Application IPOHE", "setting": "[4]", "result": "5 (5=80-100%)"}, {"measurement": "percentage damage caused to the plant, five point scale, POST Application SETFA", "setting": "Setaria faberi (SETFA) [5]", "result": "5 (5=80-100%)"}, {"measurement": "percentage damage caused to the plant, five point scale, POST Application SOLNI", "setting": "Solanum nigrum (SOLNI) [6]", "result": "5 (5=80-100%)"}, {"measurement": "percentage damage caused to the plant, five point scale, PRE Application ALOMY", "setting": "[7]", "result": "5 (5=80-100%)"}, {"measurement": "percentage damage caused to the plant, five point scale, PRE Application AMARE", "setting": "[8]", "result": "5 (5=80-100%)"}, {"measurement": "percentage damage caused to the plant, five point scale, PRE Application ECHCG", "setting": "[9]", "result": "5 (5=80-100%)"}, {"measurement": "percentage damage caused to the plant, five point scale, PRE Application IPOHE", "setting": "[10]", "result": "5 (5=80-100%)"}, {"measurement": "percentage damage caused to the plant, five point scale, PRE Application SETFA", "setting": "Setaria faberi (SETFA) [11]", "result": "5 (5=80-100%)"}, {"measurement": "percentage damage caused to the plant, five point scale, PRE Application SOLNI", "setting": "Solanum nigrum (SOLNI) [12]", "result": "5 (5=80-100%)"}]}, {"smiles": "Cc1cc(C(=O)Nc2nnnn2C)c(=O)n(-c2ccc(C#N)cn2)n1", "note": "[Compound 1.022]", "values": [{"measurement": "percentage damage caused to the plant, five point scale, POST Application ALOMY", "setting": "[1]", "result": "5 (5=80-100%)"}, {"measurement": "percentage damage caused to the plant, five point scale, POST Application AMARE", "setting": "[2]", "result": "5 (5=80-100%)"}, {"measurement": "percentage damage caused to the plant, five point scale, POST Application ECHCG", "setting": "[3]", "result": "5 (5=80-100%)"}, {"measurement": "percentage damage caused to the plant, five point scale, POST Application IPOHE", "setting": "[4]", "result": "4 (4=60-79%)"}, {"measurement": "percentage damage caused to the plant, five point scale, POST Application SETFA", "setting": "Setaria faberi (SETFA) [5]", "result": "5 (5=80-100%)"}, {"measurement": "percentage damage caused to the plant, five point scale, POST Application SOLNI", "setting": "Solanum nigrum (SOLNI) [6]", "result": "5 (5=80-100%)"}]}]}
